How the values were obtained:
CCR3 = molecular target: T1, CCR3 (Homo sapiens, UniProt P51677); details: known from WO2006/028284, Table 1 of Experimental Example 1; cited from earlier work
T1 sequence (P51677 1-355): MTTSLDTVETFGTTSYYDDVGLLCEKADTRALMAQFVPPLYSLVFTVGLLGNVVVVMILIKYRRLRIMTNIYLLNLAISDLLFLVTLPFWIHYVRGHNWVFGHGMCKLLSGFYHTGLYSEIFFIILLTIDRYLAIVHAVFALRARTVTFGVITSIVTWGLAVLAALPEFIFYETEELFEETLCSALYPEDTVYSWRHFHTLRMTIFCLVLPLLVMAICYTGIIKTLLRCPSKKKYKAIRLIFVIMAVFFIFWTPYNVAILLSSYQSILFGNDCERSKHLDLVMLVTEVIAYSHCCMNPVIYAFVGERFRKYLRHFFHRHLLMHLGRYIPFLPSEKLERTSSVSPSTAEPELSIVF

[1] = Vapor sorption measurement (index of hygroscopicity), DVS-1 apparatus; type: physicochemical; details: relative humidity 70%, change calculated based on weight at relative humidity 0%, sample about 7 mg
Description: A vapor sorption measurement to provide an index of hygroscopicity was performed using a DVS-1 vapor sorption apparatus (manufactured by SMS) under the following conditions. A sample of about 7 mg was used and the relative humidity was increased by 10% within the range of from 0% to 90%, and finally to 95%. The weight change was recorded at each predetermined relative humidity, and the amount of change (%) was calculated based on the weight at relative humidity 0%. As the samples, compound 1-2 (hereinafter to be referred to as a free form) obtained according to the method described in WO 2006/028284, Example 2, compound 1-3 (hereinafter to be referred to as hydrobromide Form I crystal) obtained according to the method described in Example 1 and compound 2 (hereinafter to be referred to as hydrobromide Form II crystal) obtained according to the method described in Example 2 were used.

Structure (SMILES)	CCR3 antagonism / inhibition of CCR3-ligand binding (CCR3)	weight change (gain) due to vapor sorption [1]	weight change (gain) due to vapor sorption ([1]; hydrobromide)
Br.O=C(O)Cc1csc(SCC(=O)NC[C@H]2CN(Cc3ccc(Cl)c(Cl)c3)CCO2)n1 [free form, (2S)-[4-(carboxymethyl)thiazol-2-ylthio]-N-{[4-(3,4-dichlorobenzyl)morpholin-2-yl]methyl}acetamide]	inhibit the bond between CCR3 and a ligand thereof, and act as an antagonist	3.3%	–
Br.O=C(O)Cc1csc(SCC(=O)NC[C@H]2CN(Cc3ccc(Cl)c(Cl)c3)CCO2)n1 [hydrobromide Form I crystal, (2S)-[4-(carboxymethyl)thiazol-2-ylthio]-N-{[4-(3,4-dichlorobenzyl)morpholin-2-yl]methyl}acetamide hydrobromide]	–	–	0.1%
Br.O=C(O)Cc1csc(SCC(=O)NC[C@H]2CN(Cc3ccc(Cl)c(Cl)c3)CCO2)n1 [hydrobromide Form II crystal, (2S)-[4-(carboxymethyl)thiazol-2-ylthio]-N-{[4-(3,4-dichlorobenzyl)morpholin-2-yl]methyl}acetamide hydrobromide]	–	–	1.4%

From US8030303B2, “Salt of morpholine compound” (Mitsubishi Tanabe Pharma Corporation, priority 2006, dated 2011)
